From patent US9433622B2, “Pyrimidine compounds useful in the treatment of diseases mediated by IKKE and/or TBK1 mechanisms” (DOMAINEX LIMITED, priority 2013, dated 2016)
pIC50: −log10 of the molar value.

How the values were obtained:
TBK1 = TBK1 (Homo sapiens (Human), UniProt Q9UHD2); assay: Lanthascreen TR-FRET kinase inhibition assay, TBK1; format: biochemical; settings: 20 μM ATP (apparent Km), 8 nM kinase, 2.5 h
Protocol: (§1) Compounds of the invention (synthesised as described below) were tested for activity against the IKKε and TBK-1 enzyme as follows:
(§2) Inhibitions studies were performed using a time-resolved fluorescence-based Lanthascreen™ assay. Phosphorylation of a fluorescein-labelled substrate peptide is measured using terbium-labeled phosphospecific antibodies.
(§3) Kinase inhibition assays (10 μL) were performed at 20° C. in 384-well plate format. […] The final reaction conditions contained 400 nM fluorescein-IkBα substrate ([…]), 20 μM ATP, 2 nM or 8 nM IKKε or TBK1 kinase respectively, and 3% DMSO in kinase assay buffer consisting of 50 mM HEPES (pH 7.5), 10 mM MgCl, 1 mM EGTA, 0.01% Brij-35.
(§4) Compound dilutions were prepared from 10 mM DMSO stocks by dilution into DMSO.
(§5) The kinase phosphorylation assay was initiated by the addition of the kinase and the reaction was allowed to proceed for 1 h or 2.5 h for IKKε and TBK-1 kinase respectively.

IKKε = IKKε (Homo sapiens (Human), UniProt Q14164); assay: Lanthascreen TR-FRET kinase inhibition assay, IKKε; format: biochemical; settings: 20 μM ATP (apparent Km), 2 nM kinase, 1 h
Sequence of IKKε (Q14164 whole entry): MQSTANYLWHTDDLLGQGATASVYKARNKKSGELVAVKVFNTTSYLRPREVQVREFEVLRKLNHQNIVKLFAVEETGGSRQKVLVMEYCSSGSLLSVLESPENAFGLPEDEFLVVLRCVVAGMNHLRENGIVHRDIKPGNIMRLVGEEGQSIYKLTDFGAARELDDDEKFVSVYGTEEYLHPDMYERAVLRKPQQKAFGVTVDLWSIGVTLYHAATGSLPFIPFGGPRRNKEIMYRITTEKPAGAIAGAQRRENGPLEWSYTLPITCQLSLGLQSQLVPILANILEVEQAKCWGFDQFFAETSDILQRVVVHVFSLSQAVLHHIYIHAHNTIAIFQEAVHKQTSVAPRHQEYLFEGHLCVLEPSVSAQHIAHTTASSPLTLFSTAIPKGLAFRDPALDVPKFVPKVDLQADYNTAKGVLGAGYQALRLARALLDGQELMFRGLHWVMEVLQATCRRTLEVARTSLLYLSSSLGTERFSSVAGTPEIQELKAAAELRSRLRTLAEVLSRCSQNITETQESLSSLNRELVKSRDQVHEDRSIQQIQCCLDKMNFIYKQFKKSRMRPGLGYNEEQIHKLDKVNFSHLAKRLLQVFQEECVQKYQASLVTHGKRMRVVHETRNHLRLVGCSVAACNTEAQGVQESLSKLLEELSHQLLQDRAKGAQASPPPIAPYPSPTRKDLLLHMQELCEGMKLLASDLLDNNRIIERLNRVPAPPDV
Protocol: as §1, §2, §3, §4, §5

Sequence of TBK1 (Q9UHD2 whole entry): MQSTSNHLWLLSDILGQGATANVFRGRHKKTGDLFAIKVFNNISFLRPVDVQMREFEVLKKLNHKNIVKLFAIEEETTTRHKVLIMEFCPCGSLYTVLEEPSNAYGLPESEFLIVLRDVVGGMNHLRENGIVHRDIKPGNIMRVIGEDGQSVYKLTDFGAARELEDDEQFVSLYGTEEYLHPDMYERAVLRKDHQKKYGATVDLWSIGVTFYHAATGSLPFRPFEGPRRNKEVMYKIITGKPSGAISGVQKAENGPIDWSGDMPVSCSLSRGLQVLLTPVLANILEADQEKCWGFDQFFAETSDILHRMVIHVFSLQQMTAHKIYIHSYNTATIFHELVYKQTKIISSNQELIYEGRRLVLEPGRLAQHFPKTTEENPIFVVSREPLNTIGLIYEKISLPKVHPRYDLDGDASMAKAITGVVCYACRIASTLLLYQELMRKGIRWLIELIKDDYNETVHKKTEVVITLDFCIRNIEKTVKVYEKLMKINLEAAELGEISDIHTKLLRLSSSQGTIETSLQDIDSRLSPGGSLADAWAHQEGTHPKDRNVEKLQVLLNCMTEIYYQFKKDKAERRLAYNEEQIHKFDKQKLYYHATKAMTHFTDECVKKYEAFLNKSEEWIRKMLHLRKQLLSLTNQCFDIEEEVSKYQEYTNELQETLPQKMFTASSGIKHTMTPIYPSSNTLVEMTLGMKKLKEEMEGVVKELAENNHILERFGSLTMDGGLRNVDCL

Structure (SMILES)	pIC50 (TBK1)	pIC50 (IKKε)
N#Cc1cc(-c2ccnc(Nc3ccnc(N4CCOCC4)c3)n2)cnc1N1CC[C@H](O)C1 [DMX-71, 2-((S)-3-Hydroxy-pyrrolidin 1-yl)-5-[2-(2-morpholin-4-yl-pyridin-4-ylamino)-pyrimidin-4-yl]-nicotinonitrile]	> 7.52	> 7.52
COCCNc1cc(Nc2ncc(F)c(-c3cnc(NC4CC4)c(C#N)c3)n2)ccn1 [DMX-125, 2-Cyclopropylamino-5-{5-fluoro-2-[2-(2-methoxy-ethylamino)-pyridin-4-ylamino]-pyrimidin-4-yl}-nicotinonitrile]	> 7.00	> 6.00
N#Cc1cc(-c2ccnc(Nc3ccc(NC(=O)CN4CCNCC4)nc3)n2)cnc1N1CC[C@H](F)C1 [DMX-31, N-(5-{4-[5-Cyano-6-((S)-3-fluoro-pyrrolidin-1-yl)-pyridin-3-yl]-pyrimidin-2-ylamino}-pyridin-2-yl)-2-piperazin-1-yl-acetamide]	> 7.52	> 7.00
N#Cc1cc(-c2ccnc(Nc3ccnc(N4CCOCC4)c3)n2)cnc1N1CC[C@H](F)C1 [DMX-61, 2-((S)-3-Fluoro-pyrrolidin-1-yl)-5-[2-(2-morpholin-4-yl-pyridin-4-ylamino)-pyrimidin-4-yl]-nicotinonitrile]	> 7.82	> 7.82
Cn1cc(Nc2nccc(-c3ccc(N4CCC(C(N)=O)CC4)c(C#N)n3)n2)cn1 [DMX-60, 2′-Cyano-6′-[2-(1-methyl-1H-pyrazol-4-ylamino)-pyrimidin-4-yl]-3,4,5,6-tetrahydro-2H-[1,3′]bipyridinyl-4-carboxylic acid amide]	> 7.00	> 7.00
N#Cc1nc(-c2ccnc(Nc3ccc(CN4CC[C@H](F)C4)nc3)n2)ccc1N1CC[C@H](F)C1 [DMX-150, 3-((S)-3-Fluoro-pyrrolidin-1-yl)-6-{2-[6-((S)-3-fluoro-pyrrolidin-1-ylmethyl)-pyridin-3-ylamino]-pyrimidin-4-yl}-pyridine-2-carbonitrile]	> 7.82	> 7.82
CN1CCN(C(=O)c2cccc(Nc3nccc(-c4cnc(N5CC[C@H](F)C5)c(C#N)c4)n3)c2)CC1 [DMX-6, 2-((S)-3-Fluoro-pyrrolidin-1-yl)-5-{2-[3-(4-methyl-piperazine-1-carbonyl)-phenylamino]-pyrimidin-4-yl}-nicotinonitrile]	> 7.52	> 7.00
COCCN1Cc2ccc(Nc3nccc(-c4cnc(N5CC[C@H](F)C5)c(C#N)c4)n3)cc2C1 [DMX-127, 2-((S)-3-Fluoro-pyrrolidin-1-yl)-5-{2-[2-(2-methoxy-ethyl)-2,3-dihydro-1H-isoindol-5-ylamino]-pyrimidin-4-yl}-nicotinonitrile]	> 7.82	> 7.82
N#Cc1cc(-c2ccnc(Nc3ccc(CN4CCOCC4)nc3)n2)cnc1N1CCC(OC(F)F)C1 (centres unmarked) [DMX-161, 2-(3-Difluoromethoxy-pyrrolidin-1-yl)-5-[2-(6-morpholin-4-ylmethyl-pyridin-3-ylamino)-pyrimidin-4-yl]-nicotinonitrile]	> 7.00	> 7.52
N#Cc1cc(-c2ccnc(Nc3cnn(CCO)c3)n2)cnc1N1CCCC1 [DMX-36, 5-{2-[1-(2-Hydroxy-ethyl)-1H-pyrazol-4-ylamino]-pyrimidin-4-yl}-2-pyrrolidin-1-yl-nicotinonitrile]	> 7.52	> 7.52
Cn1cc(Nc2nccc(-c3cnc(N4CC[C@H](O)C4)c(C#N)c3)n2)cn1 [DMX-16, 2-((S)-3-Hydroxy-pyrrolidin-1-yl)-5-[2-(1-methyl-1H-pyrazol-4-ylamino)-pyrimidin-4-yl]-nicotinonitrile]	> 7.00	> 7.00
N#Cc1nc(-c2ccnc(Nc3ccc(NC(=O)CN4CCOCC4)nc3)n2)ccc1N1CCC2(COC2)C1 [DMX-167, N-(5-{4-[6-Cyano-5-(2-oxa-6-aza-spiro[3.4]oct-6-yl)-pyridin-2-yl]-pyrimidin-2-ylamino}-pyridin-2-yl)-2-morpholin-4-yl-acetamide]	> 7.00	> 7.52
COC1CN(Cc2ccc(Nc3nccc(-c4cnc(N5CC[C@H](F)C5)c(C#N)c4)n3)cn2)C1 [DMX-83, 2-((S)-3-Fluoro-pyrrolidin-1-yl)-5-{2-[6-(3-methoxy-azetidin-1-ylmethyl)-pyridin-3-ylamino]-pyrimidin-4-yl}-nicotinonitrile]	> 7.52	> 7.52
COCCNCc1cncc(Nc2nccc(-c3cnc(N4CC[C@H](F)C4)c(C#N)c3)n2)c1 [DMX-106, 2-((S)-3-Fluoro-pyrrolidin-1-yl)-5-(2-{5-[(2-methoxy-ethylamino)-methyl]-pyridin-3-ylamino}-pyrimidin-4-yl)-nicotinonitrile]	> 7.00	> 7.00
N#Cc1cc(-c2ccnc(Nc3ccc4c(c3)CNC4)n2)cnc1N1CC[C@H](F)C1 [DMX-126, 5-[2-(2,3-Dihydro-1H-isoindol-5-ylamino)-pyrimidin-4-yl]-2-((S)-3-fluoro-pyrrolidin-1-yl)-nicotinonitrile]	> 7.82	> 7.82
N#Cc1nc(-c2ccnc(Nc3ccc(NC(=O)CN4CC[C@H](F)C4)nc3)n2)ccc1N1CC[C@H](O)C1 [DMX-146, N-(5-{4-[6-Cyano-5-((S)-3-hydroxy-pyrrolidin-1-yl)-pyridin-2-yl]-pyrimidin-2 ylamino}-pyridin-2-yl)-2-((S)-3-fluoro-pyrrolidin-1-yl)-acetamide]	> 7.52	> 7.00
CN1CCC(Nc2ccc(Nc3nccc(-c4cnc(N[C@@H]5CCOC5)c(C#N)c4)n3)cn2)CC1 [DMX-114, 5-{2-[6-(1-Methyl-piperidin-4-ylamino)-pyridin-3-ylamino]-pyrimidin-4-yl}-2-[(R)-(tetrahydro-furan-3-yl)amino]-nicotinonitrile]	> 7.00	> 7.00
Cc1nccn1CC(=O)Nc1ccc(Nc2nccc(-c3cnc(N4CC[C@H](F)C4)c(C#N)c3)n2)cn1 [DMX-128, N-(5-{4-[5-Cyano-6-((S)-3-fluoro-pyrrolidin-1-yl)-pyridin-3-yl]-pyrimidin-2-ylamino)-pyridin-2-yl)-2-(2-methyl-imidazol-1-yl)-acetamide]	> 7.52	> 7.52
CC(C)N1CCN(CC(=O)Nc2ccc(Nc3nccc(-c4cnc(N5CC[C@H](F)C5)c(C#N)c4)n3)cn2)CC1 [DMX-23, N-(5-{4-[5-Cyano-6-((S)-3-fluoro-pyrrolidin-1-yl)-pyridin-3-yl]-pyrimidin-2-ylamino}-pyridin-2-yl)-2-(4-isopropyl-piperazin-1-yl)-acetamide]	> 7.52	> 7.52
CN1CCC(NC(=O)c2ccc(Nc3ncc(F)c(-c4cnc(N5CC[C@H](F)C5)c(C#N)c4)n3)cc2)CC1 [DMX-28, 4-{4-[5-Cyano-6-((S)-3-fluoro-pyrrolidin-1-yl)-pyridin-3-yl]-5-fluoro-pyrimidin-2-ylamino}-N-(1-methyl-piperidin-4-yl)-benzamide]	> 7.82	> 7.82
N#Cc1cc(-c2ccnc(Nc3ccc(CN4CCOCC4)nc3)n2)cnc1N1CCNC(=O)CC1 [DMX-133, 5-[2-(6-Morpholin-4-yImethyl-pyridin-3-ylamino)-pyrimidin-4-yl]-2-(5-oxo-[1,4]diazepan-1-yl)-nicotinonitrile]	> 6.00	> 6.00
N#Cc1cc(-c2ccnc(Nc3ccc(CN4CC[C@H](F)C4)nc3)n2)cnc1N1CC[C@H](F)C1 [DMX-80, 2-((S)-3-Fluoro-pyrrolidin-1-yl)-5-{2-[6-((S)-3-fluoro-pyrrolidin-1-ylmethyl)-pyridin-3-ylamino]-pyrimidin-4-yl}-nicotinonitrile]	> 7.52	> 7.82
N#Cc1cc(-c2ccnc(Nc3ccc(CN4CCCOCC4)nc3)n2)cnc1N1CC[C@H](F)C1 [DMX-103, 2-((S)-3-Fluoro-pyrrolidin-1-yl)-5-[2-(6-[1,4]oxazepan-4-ylmethyl-pyridin-3-ylamino)-pyrimidin-4-yl]-nicotinonitrile]	> 7.00	> 7.00
COCCN(C)CC(=O)Nc1ccc(Nc2nccc(-c3cnc(N4CC[C@H](F)C4)c(C#N)c3)n2)cn1 [DMX-21, N-(5-{4-[5-Cyano-6-((S)-3-fluoro-pyrrolidin-1-yl)-pyridin-3-yl]-pyrimidin-2-ylamino}-pyridin-2-yl)-2-[(2-methoxy-ethyl)-methyl-amino]-acetamide]	> 7.52	> 7.52
COCCNc1ncc(-c2ccnc(Nc3ccc(NC4CCN(C)CC4)nc3)n2)cc1C#N [DMX-118, 2-(2-Methoxy-ethylamino)-5-{2-[6-(1-methyl-piperidin-4-ylamino)-pyridin-3-ylamino]-pyrimidin-4-yl}-nicotinonitrile]	> 6.00	> 6.00
N#Cc1cc(-c2ccnc(Nc3ccc(NC(=O)CN4CCC(O)CC4)nc3)n2)cnc1N1CC[C@H](F)C1 [DMX-29, N-(5-{4-[5-Cyano-6-((S)-3-fluoro-pyrrolidin-1-yl)-pyridin-3-yl]-pyrimidin-2-ylamino}-pyridin-2-yl)-2-(4-hydroxy-piperidin-1-yl)-acetamide]	> 7.52	> 7.52
N#Cc1nc(-c2ccnc(Nc3ccc(NC(=O)CN4CCOCC4)nc3)n2)ccc1N1CCCOCC1 [DMX-166, N-{5-[4-(6-Cyano-5-[1,4]oxazepan-4-yl-pyridin-2-yl)-pyrimidin-2-ylamino]-pyridin-2-yl)-2-morpholin-4-yl-acetamide]	> 7.00	> 7.00
Cn1cc(Nc2nccc(-c3cnc(N4CC[C@H](F)C4)c(C#N)c3)n2)cn1 [DMX-7, 2-((S)-3-Fluoro-pyrrolidin-1-yl)-5-[2-(1-methyl-1H-pyrazol-4-ylamino)-pyrimidin-4-yl]-nicotinonitrile]	> 7.52	> 7.52
